From patent US10294202B2, “Pyrrolidinones as herbicides” (FMC Corporation, priority 2013, dated 2019)

Key:
[1] = test system: kochia; assay: Test D pre-/postemergence herbicide test; assay type: in vivo, Kochia scoparia; conditions: for Plant response rating: Kochia, scale 0 to 100; for Plant response rating, Kochia: scale 0 to 100 (0 no effect, 100 complete control)
Text: Seeds of plant species selected from bluegrass (annual bluegrass, Poa annua), blackgrass (Alopecurus myosuroides), canarygrass (littleseed canarygrass, Phalaris minor), chickweed (common chickweed, Stellaria media), galium (catchweed bedstraw, Galium aparine), bromegrass, downy (downy bromegrass, Bromus tectorum), field poppy (Papaver rhoeas), field violet (Viola arvensis), foxtail, green (green foxtail, Setaria viridis), deadnettle (henbit deadnettle, Lamium amplexicaule), ryegrass, Italian (Italian ryegrass, Lolium multiflorum), kochia (Kochia scoparia), lambsquarters (Chenopodium album), oilseed rape (Brassica napus), pigweed (Amaranthus retroflexus), chamomile (scentless chamomile, Matricaria inodora), Russian thistle (Salsola kali), speedwell (bird's-eye speedwell, Veronica persica), barley, spring (spring barley, Hordeum vulgare), wheat, spring (spring wheat, Triticum aestivum), buckwheat, wild (wild buckwheat, Polygonum convolvulus), mustard, wild (wild mustard, Sinapis arvensis), oat, wild (wild oat, Avena fatua), radish, wild (wild radish, Raphanus raphanistrum), […]), barley, winter (winter barley, Hordeum vulgare), and wheat, winter (winter wheat, Triticum aestivum) were planted into a silt loam soil and treated preemergence with test chemicals formulated in a non-phytotoxic solvent mixture which included a surfactant. At the same time, these species were planted in pots containing Redi-Earth® planting medium (Scotts Company, 14111 Scottslawn Road, Marysville, Ohio 43041) comprising spaghnum peat moss, vermiculite, wetting agent and starter nutrients and treated with postemergence applications of the test chemicals formulated in the same manner. Plants ranged in height from 2 to 18 cm (1- to 4-leaf stage). Treated plants and controls were maintained in a controlled growth environment for 7 to 21 days after which time all species were compared to controls and visually evaluated. Plant response ratings, summarized in Table D, are based on a scale of 0 to 100 where 0 is no effect and 100 is complete control. A dash (-) response means no test result.

[2] = test system: surinam grass; assay: Test C pre-/postemergence herbicide test; assay type: in vivo, Brachiaria decumbens
Text: (§1) Seeds of plant species selected from blackgrass (Alopecurus myosuroides), ryegrass, Italian (Italian ryegrass, Lolium multiflorum), wheat (winter wheat, Triticum aestivum), galium (catchweed bedstraw, Galium aparine), corn (Zea mays), crabgrass, large (large crabgrass, Digitaria sanguinalis), foxtail, giant (giant foxtail, Setaria faberii), johnsongrass (Sorghum halepense), lambsquarters (Chenopodium album), morningglory (Ipomoea coccinea), nutsedge, yellow (yellow nutsedge, Cyperus esculentus), pigweed (Amaranthus retroflexus), ragweed (common ragweed, Ambrosia elatior), soybean (Glycine max), barnyardgrass (Echinochloa crus-galli), oilseed rape (Brassica napus), waterhemp (common waterhemp, Amaranthus rudis), kochia (Kochia scoparia), oat, wild (wild oat, Avena fatua), surinam grass (Brachiaria decumbens), foxtail, green (green foxtail, Setaria viridis), goosegrass (Eleusine indica), bromegrass, downy (downy bromegrass, Bromus tectorum), nightshade (eastern black nightshade, Solanum ptycanthum), cocklebur (common cocklebur, Xanthium strumarium), cupgrass, woolly (woolly cupgrass, Eriochloa villosa), bermudagrass (Cynodon dactylon), sunflower, (common oilseed sunflower, Helianthus annuus), Russian thistle (Salsola kali) and velvetleaf (Abutilon theophrasti) were planted into a blend of loam soil and sand and treated preemergence with test chemicals formulated in a non-phytotoxic solvent mixture which included a surfactant. At the same time, plants selected from these crop and weed species and also barley (winter barley, Hordeum vulgare), […]), chickweed (common chickweed, Stellaria media), deadnettle (henbit deadnettle, Lamium amplexicaule), and canarygrass (littleseed canarygrass, Phalaris minor) were planted in pots containing Redi-Earth® planting medium (Scotts Company, 14111 Scottslawn Road, Marysville, Ohio 43041) comprising spaghnum peat moss, vermiculite, wetting agent and starter nutrients and treated with postemergence applications of test chemicals formulated in the same manner. Plants ranged in height from 2 to 18 cm (1- to 4-leaf stage) for postemergence treatments. Treated plants and controls were maintained in a greenhouse for 13 to 15 days, after which time all species were compared to controls and visually evaluated. Plant response ratings, summarized in Table C, are based on a scale of 0 to 100 where 0 is no effect and 100 is complete control. A dash (-) response means no test result.

[3] = test system: goosegrass; assay: Test C pre-/postemergence herbicide test; assay type: in vivo, Eleusine indica
Text: as §1

[4] = Preemergence, 62 g ai/ha, scale 0 to 100
[5] = Preemergence, 125 g ai/ha, scale 0 to 100 (0 no effect, 100 complete control)
[6] = Preemergence, 31 g ai/ha, scale 0 to 100 (0 no effect, 100 complete control)
[7] = Postemergence, 16 g ai/ha, scale 0 to 100 (0 no effect, 100 complete control)
[8] = Postemergence, 31 g ai/ha, scale 0 (no effect) to 100 (complete control)
[9] = Postemergence, 62 g ai/ha, scale 0 to 100 (0 no effect, 100 complete control)
[10] = Postemergence, 125 g ai/ha, scale 0 to 100 (0 no effect, 100 complete control)
[11] = Preemergence, 16 g ai/ha, scale 0 to 100
[12] = Postemergence, 250 g ai/ha, scale 0 to 100 (0 no effect, 100 complete control)
[13] = Preemergence, 31 g ai/ha, scale 0 to 100, 0 is no effect and 100 is complete control

Compound	Plant response rating ([1]; Postemergence, 16 g ai/ha)	Plant response rating ([1]; Postemergence, 31 g ai/ha)	Plant response rating ([1]; Postemergence, 62 g ai/ha)	Plant response rating ([1]; Postemergence, 125 g ai/ha)	Plant response rating ([1]; Postemergence, 250 g ai/ha)	Plant response rating, Kochia ([1]; Preemergence, 62 g ai/ha)	Plant response rating, Kochia ([1]; Preemergence, 16 g ai/ha)	Plant response rating, Kochia ([1]; Preemergence, 31 g ai/ha)	Plant response rating ([1]; Preemergence, 125 g ai/ha)	Plant response rating ([1]; Preemergence, 250 g ai/ha)	Plant response rating, Surinam Grass [2, 4]	Plant response rating, Surinam Grass [2, 5]	Plant response rating, Goosegrass [3, 4]	Plant response rating, Goosegrass [3, 5]	Goosegrass plant response rating [3, 6]	Plant response rating, Surinam Grass [2, 8]	Plant response rating, Surinam Grass [2, 9]	Plant response rating, Goosegrass [3, 8]	Plant response rating, Goosegrass [3, 9]	Plant response rating, Goosegrass [3, 10]	further results
O=C1NCC(c2ccc(F)c(F)c2)C1C(=O)Nc1ccccc1C(F)(F)F (racemic) [Compound 6]	0	5	5	5	10	30	0	0	40	50	–	–	–	–	–	–	–	–	–	–	–
O=C1NCC(c2ccc(F)c(C(F)(F)F)c2)C1C(=O)Nc1cccc(F)c1F (racemic) [Compound 77]	–	–	–	–	–	75	–	35	80	85	–	–	–	–	–	–	–	–	–	–	–
O=C1NCCC1C(=O)N(c1ccc(F)c(F)c1)c1ccccc1F (stereo not drawn) [Compound 5, N-(3,4-difluorophenyl)-N-(2-fluorophenyl)-2-oxo-3-pyrrolidinecarboxamide]	–	–	–	–	–	–	–	–	–	–	85	95	0	0	0	–	–	–	–	–	–
O=C1NCC(c2cc(F)c(F)c(F)c2)C1C(=O)Nc1cccc(F)c1F (stereo not drawn) [Compound 48]	–	–	–	–	–	–	–	–	–	–	75	85	10	15	0	5	25	10	10	10	Plant response rating, Surinam Grass [2, 7]: 0; Plant response rating, Surinam Grass [2, 10]: 25; Plant response rating, Surinam Grass [2, 11]: 10; Plant response rating, Goosegrass [3, 7]: 10; Plant response rating, Goosegrass [3, 11]: 0
O=C1NCC(c2cc(F)c(F)cc2F)C1C(=O)Nc1cccc(F)c1F (stereo not drawn) [Compound 50]	10	15	15	0	–	10	5	10	0	–	–	–	–	–	–	5	5	25	25	25	Plant response rating, Surinam Grass [2, 10]: 5; Plant response rating, Surinam Grass [2, 12]: 15; Plant response rating, Goosegrass [3, 12]: 25
O=C1NCC(c2ccc(Cl)c(F)c2)C1C(=O)Nc1cccc(F)c1F (stereo not drawn) [Compound 52]	0	0	20	25	35	20	0	20	20	40	35	45	20	60	10	0	5	0	0	20	Plant response rating, Surinam Grass [2, 12]: 30; Plant response rating, Goosegrass [3, 12]: 20
O=C1NCC(c2ccc(F)c(Cl)c2)C1C(=O)Nc1ccccc1F (stereo not drawn) [Compound 60]	–	–	–	–	–	–	–	–	–	–	70	70	0	0	0	0	0	0	0	0	Plant response rating, Surinam Grass [2, 10]: 0
O=C1NCC(c2cccc(OC(F)(F)F)c2)C1C(=O)Nc1ccccc1F (stereo not drawn) [Compound 69]	–	–	–	–	–	–	–	–	–	–	75	85	40	40	–	–	–	–	–	–	Surinam Grass plant response rating [2, 13]: 60; Plant response rating (scale of 0 to 100), Surinam Grass ([2]; Preemergence, 250 g ai/ha): 85; Goosegrass plant response rating [3, 13]: 20; Plant response rating (scale of 0 to 100), Goosegrass ([3]; Preemergence, 250 g ai/ha): 75
O=C1NCC(c2ccc(C(F)(F)F)cc2)C1C(=O)Nc1ccccc1F (stereo not drawn) [Compound 231]	–	55	60	60	65	20	–	0	–	85	–	–	–	–	–	–	–	–	–	–	Plant response rating, Kochia ([1]; Preemergence, 125 g ai/ha): 80
